Literature values as cited in patent US7514484B2, “Aqueous dispersion of polytetrafluoroethylene and process for its production” (Asahi Glass Company, Limited, priority 2005, dated 2009).
Read-outs that look alike come from different tables or passages of the source.

[1] = additives of Table 3, value of the corresponding acid
[2] = carboxylic acid corresponding to the salt of formula (4)

Molecule | pKa [1] | pKa [2]
CCCCCCCCCCCC(=O)O.N [(d), ammonium laurate] | 4.6 | 
O=C(O)C(F)c1ccccc1 (stereo not shown) [fluorophenyl acetic acid] |  | 4.3
CCCCCCCCCCCC(=O)O [lauric acid] |  | 4.6
ammonium fluorophenyl acetate [(f)] | 4.3 | 
